# Laboratory results reported in paper PMC10053770, “Assessment of the Pharmacokinetics, Disposition, and Duration of Action of the Tumour-Targeting Peptide CEND-1” (International Journal of Molecular Sciences, 2023).
# Read-outs that look alike come from different tables or passages of the source.
# Assay: Clinical pharmacokinetics in patients with metastatic pancreatic ductal adenocarcinoma
# Assay type: in vivo, human
# Details: for Vd: 3.2 mg/kg, read-out: Vz
# Experimental: In this study, CEND-1 PK data from up to 28 participants receiving either 1.6 mg/kg (n = 14) and 3.2 mg/kg (n = 14) in the expansion cohort were analysed. Details of this phase I clinical study, conducted in patients with metastatic pancreatic ductal adenocarcinoma receiving CEND-1 in combination with nab-paclitaxel and gemcitabine, are described in detail by Dean et al.. PK parameters were measured following CEND-1 monotherapy (run-in day 1) and combination therapy (cycle 1 day 1 and cycle 6 day 1, if applicable).
# In the initial monotherapy run-in phase, single doses of CEND-1 were given one to seven days before the start of the combination chemotherapy. In the combination therapy phase, patients first received an intravenous infusion of nab-paclitaxel (125 mg/m^2) over 30 min (±3 min). CEND-1 was then given intravenously as a slow IV push over 1 min (±30 s). The intravenous infusion of gemcitabine (1000 mg/m^2 over 30 min (±3 min)) was started within 10 min of CEND-1 administration. On all occasions, plasma samples were collected from patients before the CEND-1 infusion and at 3 min (±1 min), 15 min (±3 min), 30 min (±3 min), 1 hour (±5 min), ¾ h (±10 min) and 6/8 h (±10 min) after completion of the infusion.
# No formal sample size calculation was performed. Samples of 2–12 animals and 31 pancreatic cancer patients were considered acceptable to perform initial pharmacokinetic evaluations. The concentrations of CEND-1 were used to calculate PK parameters by employing a non-compartmental analysis (Phoenix^TM WinNonlin, version 6.1). The linear log trapezoidal algorithm, with a weighting of 1/Y*Y was used for parameter calculations. Mean PK parameters were calculated from individual animals in each treatment group. Concentrations below the LLOQ (if any) were excluded for the calculation of PK parameters. The mean values of PK parameters were calculated using Microsoft Excel version 2010.
# [1] = pancreatic cancer patients, 3.2 mg/kg IV, plasma, Cycle 1 Day 1 with nab-paclitaxel+gemcitabine, mean, N=9
# [2] = pancreatic cancer patients, 3.2 mg/kg IV, plasma, Cycle 1 Day 1 with nab-paclitaxel+gemcitabine, mean, N=13
# [3] = pancreatic cancer patients, 3.2 mg/kg IV, plasma, Cycle 6 Day 1 with nab-paclitaxel+gemcitabine, N=1
# [4] = pancreatic cancer patients, 3.2 mg/kg IV, plasma, Cycle 6 Day 1 with nab-paclitaxel+gemcitabine, mean, N=5
# [5] = pancreatic cancer patients, 3.2 mg/kg IV, plasma, Run-In (monotherapy), mean, N=7
# [6] = pancreatic cancer patients, 3.2 mg/kg IV, plasma, Run-In (monotherapy), mean, N=8
smiles,measurement,setting,value
CC(=O)N[C@H]1CSSC[C@@H](C(N)=O)NC(=O)[C@H](CC(=O)O)NC(=O)[C@@H]2CCCN2C(=O)CNC(=O)[C@H](CCCCN)NC(=O)[C@H](CC(=O)O)NC(=O)CNC(=O)[C@H](CCCNC(=N)N)NC1=O [CEND-1],Vd,"human, plasma, iv, pancreatic cancer patients, 3.2 mg/kg IV, plasma, Cycle 1 Day 1 with nab-paclitaxel+gemcitabine, mean, N=9",0.263 L/kg
same,Vd,"human, plasma, iv, pancreatic cancer patients, 3.2 mg/kg IV, plasma, Run-In (monotherapy), mean, N=7",0.269 L/kg
same,Tmax,"human, plasma, iv, patients, run-in day 1, 1.6 and 3.2 mg/kg, read-out: time of peak plasma concentration (first post-dose PK sampling timepoint) (converted)",3 min
same,level at 8 h,"human, plasma, patients, run-in day 1, 1.6 and 3.2 mg/kg IV, SD = 317.9, read-out: mean plasma concentration by 8 h post-dose",439 ng/mL
same,AUC0-t,"human, pancreatic cancer patients, 3.2 mg/kg IV, plasma, Cycle 6 Day 1 with nab-paclitaxel+gemcitabine, mean, N=5, read-out: AUC0-t",30600 ng·h/mL
same,Cmax,"human, pancreatic cancer patients, 3.2 mg/kg IV, plasma, Cycle 6 Day 1 with nab-paclitaxel+gemcitabine, mean, N=5, read-out: Cmax",25800 ng/mL
same,Tmax,"human, pancreatic cancer patients, 3.2 mg/kg IV, plasma, Cycle 6 Day 1 with nab-paclitaxel+gemcitabine, mean, N=5, read-out: Tmax",3.78 min
same,AUC0-inf/D,[1],9592 kg·ng·h/mL
same,AUC(0-inf),[1],"30,690 h*ng/mL"
same,CL,[1],1.792 mL/min/kg
same,t1/2,[1],103.5 min
same,λlast,[1],0.4082 h⁻¹
same,AUC0-t,[2],"28,610 h*ng/mL"
same,AUC0-t/D,[2],8942 kg·ng·h/mL
same,Cmax,[2],"24,050 ng/mL"
same,Cmax/D,[2],7514 kg*ng/mL/m
same,Tlast,[2],5.767 h
same,Tmax,[2],6.78 min
same,AUC0-inf/D,[3],"10,440 h*kg*ng/mL"
same,AUC(0-inf),[3],"33,400 h*ng/mL"
same,CL,[3],1.6 mL/min/kg
same,Vz,[3],0.2209 L/kg
same,t1/2,[3],95.88 min
same,λlast,[3],0.4338 h⁻¹
same,AUC0-t/D,[4],9558 kg·ng·h/mL
same,Cmax/D,[4],8050 kg*ng/mL/m
same,Tlast,[4],4.897 h
same,AUC0-inf/D,[5],"10,800 h*kg*ng/mL"
same,AUC(0-inf),[5],"34,560 h*ng/mL"
same,CL,[5],1.63 mL/min/kg
same,t1/2,[5],117.4 min
same,λlast,[5],0.3607 h⁻¹
same,AUC0-t,[6],"31,330 h*ng/mL"
same,AUC0-t/D,[6],9791 kg·ng·h/mL
same,Cmax,[6],"31,210 ng/mL"
same,Tlast,[6],6.725 h
same,Tmax,[6],7.02 min
same,plasma half-life,"patients, intravenous administration",~120 min
